Reference: US6344191B2, “Chemical attractants for moths” (The United States of America as represented by the …, priority 1998, dated 2002)

Experiments:
Test in all cases: Field trapping test, baited Trappit dome traps in apple and pear orchards
Assay type in all cases: in vivo
Settings in all cases: for Numbers captured in traps: Experiment 4, 0.25% acetic acid in drowning solution and/or 1 ml alcohol in cap, unbaited control
[1] = test system: spotted cutworm (Xestia c-nigrum)
Experimental: (§1) Materials and Methods. The Trappit™ dome trap (Agrisense, Fresno, Calif.) was used in all tests. Two hundred ml of a drowning solution was used in the reservoir of all traps. This solution was 200 ml water, 25 μl of detergent, 50 μl yellow, 25 μl blue, and 60 μl red food dyes (McCormick, Hunt Valley, N.J.), and 20 mg clay. Acetic acid, when tested, was added to the drowning solution as a percent of the solution. Alcohols tested were loaded in polyethylene caps (No. 60975D-3, Kimball Glass, Vineland, N.J.) that were impaled on a push pin glued to the inside of the top of the trap. Traps were serviced two or three times per week depending on weather conditions, and the drowning solution with or without acetic acid was replaced weekly. Alcohols in polyethylene caps were replaced monthly.
(§2) All experiments were conducted in commercial apple and pear orchards. Traps were hung from tree branches at 1.5 to 2 m above ground, with 10 m between traps within a block and 10 m between adjacent blocks.
(§3) Experiment Overview. Four trapping experiments were conducted in apple and pear orchards in the Yakima Valley during the summer of 1998. An initial experiment compared captures of pest moths in traps baited with the combination of acetic acid and 3-methyl-1-butanol to acetic acid alone and to fermented molasses solution. The second experiment was a comparison of the attractiveness of the combination of acetic acid and 3-methyl-1-butanol with varying percentages of acetic acid in the drowning solution. The third experiment was a comparison of the attractiveness of the combination of acetic acid and 3-methyl-1-butanol with varying doses of the 3-methyl-1-butanol in the cap. The fourth experiment was a test of possible synergism or enhancement of acetic acid with 3-methyl-1-butanol and acetic acid with 3-methyl-1-pentanol and a comparison of the two alcohols.
(§4) Trap catch data for each species was subjected to an ANOVA and means were separated by Duncan's New Multiple Range Test for the first and fourth experiments. Linear regression was used to analyze trap data from the second and third experiments to determine if their was a significant relationship between concentration (acetic acid) or dose (3-methyl-1-butanol) and captures of moths in traps.
(§5) Experiment 1. Traps were baited (1) with 0.25% acetic acid in the drowning solution, (2) with 0.5% acetic acid in the drowning solution and one ml of 3-methyl-1-butanol in a polyethylene cap, or (3) with 200 ml of a 10% solution of molasses in water. A randomized complete block design was used, with 4 blocks set up in early May. Traps were maintained through May and June and again in August.
Experiment 4. […]

Lacanobia subjuncta = test system: Lacanobia subjuncta
Experimental: as §1, §2, §3, §4, §5
(§6) Experiment 2. Traps were all baited with one ml of 3-methyl-1-butanol in a polyethylene cap and with either no acetic acid in the drowning solution or with 0.008, 0.03, 0.125, 0.5, or 2% glacial acetic acid by volume in the 200 ml of drowning solution. A randomized complete block design was used, with 4 blocks set up in late July, with each of the 6 treatments represented within each block. This experiment was maintained through August and early September.
(§7) Experiment 3. Traps were all baited with 0.25% acetic acid in the drowning solution and either 0, 12.5, 25, 50, or 100% 3-methyl-1-butanol in one ml of a mixture of 3-methyl-1-butanol and mineral oil. A randomized complete block design was used with each of the 5 treatments represented within each block. This experiment was set up in late July and was maintained through early September.
(§8) Experiment 4. Traps were either unbaited (control) or were baited with 0.25% acetic acid in the drowning solution (acetic acid), with 0.25% acetic acid in the drowning solution and one ml of 3-methyl-1-butanol in a polyethylene cap, with 0.25% acetic acid in the drowning solution and one ml of 3-methyl-1-pentanol in a polyethylene cap, with one ml of 3-methyl-1-butanol in a cap, or with one ml of 3-methyl-1-pentanol in a cap.

[2] = test system: bertha armyworm (Mamestra configurata)
Experimental: as §1, §2, §3, §4, §5, §6, §7, §8

[3] = Experiment 2, 1 ml 3-methyl-1-butanol in cap, no acetic acid
[4] = Experiment 1, 0.25% acetic acid in drowning solution, 200 ml 10% molasses solution

## CC(C)CCO [3-methyl-1-butanol]
[1]
  Numbers captured in traps: significantly higher than the unbaited traps
Lacanobia subjuncta; [3]
  Numbers of moths captured in traps: nearly no moths
Lacanobia subjuncta
  Numbers captured in traps: significantly higher than the unbaited traps
[2]; [3]
  Numbers of moths captured in traps: Nearly no
[2]
  Numbers captured in traps: significantly higher than the unbaited traps

## CC(=O)O [acetic acid, reference compound]
[1]; Experiment 1, females, 0.25% acetic acid, 10% molasses solution
  Catches of female moths, acetic acid versus molasses: no difference
[1]
  Numbers captured in traps: significantly higher than the unbaited traps
Lacanobia subjuncta; [4]
  Catches of male or female moths, acetic acid versus molasses: no difference
Lacanobia subjuncta
  Numbers captured in traps: significantly higher than the unbaited traps
[2]; [4]
  Catches of male or female moths, acetic acid versus molasses: no difference
[2]
  Numbers captured in traps: significantly higher than the unbaited traps

## CCC(C)CCO (centres unmarked) [3-methyl-1-pentanol]
[1]
  Numbers captured in traps: significantly higher than the unbaited traps
Lacanobia subjuncta
  Numbers captured in traps: significantly higher than the unbaited traps
[2]
  Numbers captured in traps: significantly higher than the unbaited traps
